Read-outs that look alike come from different tables or passages of the source.

These results are taken from patent US10562857B2 (AFASCI, Inc., priority 2015, dated 2020).

The target in one series is T1, Cav3.2 channel (Homo sapiens, UniProt O95180).
T1 construct: expressed in transfected cells; host or cells: HEK-293, tetracycline inducible expression system (Invitrogen)
In words: Whole-cell patch clamp of T-type Cav3.2 channel expressed in HEK293 cells. The series is classed as cell-based. (In general: Patch clamp records ionic current or voltage across a cell membrane.)

The next series has as its target T2, hERG channel (Homo sapiens, UniProt Q12809).
T2 construct: expressed in transfected cells; host or cells: CHO
In words: hERG patch clamp in hERG-expressing CHO cells. The series is classed as cell-based. The procedure: Sodium and potassium channels in the rodent DRG neurons were recorded and tested as described above. The human ether-a-go-go-related gene (hERG) encodes the rapidly activating potassium channel (IKr) contributing to the repolarization of the cardiac action potential. […] Therefore the representative example compounds in Table 2 were tested against the hERG channel.
Whole-cell patch clamp electrophysiology is employed to test compounds and a positive control compound. Extracellular Ringer's solution contains (in mM): NaCl (130), KCl (5), CaCl2 (1), Glucose (10), HEPES-Na (10) (pH 7.4 adjusted with HCl). Internal pipette solution contains (in mM): KF (120), CaCl2 (1), MgCl2 (1), KCl (10), EGTA (11), HEPES (10), KOH (11) (pH 7.2 adjusted with KOH). The hERG potassium currents are recorded under a holding potential of −80 mV and then depolarized to 40 mV for 2.5 seconds to activate the hERG channel. The peak tail currents are induced by a repolarizing pulse to −50 mV for 4 seconds. A 250 millisecond prepulse to −50 mV is applied for leak subtraction. This voltage-clamp pulse protocol is performed continuously during the experiment every 20 seconds allowing recovery from inactivation. For IC50 determination, each concentration is applied for 2 mins to reach a steady-state inhibitory level prior to the next higher concentrations tested. Each concentration is tested at 2-3 times (n=2-3).

Where [1] appears, read: Table 1, tested at at least 4 concentrations, read-out: IC50.
[2] abbreviates: Table 3A, read-out: Cav3.2 IC50.

T1 sequence (O95180 whole entry): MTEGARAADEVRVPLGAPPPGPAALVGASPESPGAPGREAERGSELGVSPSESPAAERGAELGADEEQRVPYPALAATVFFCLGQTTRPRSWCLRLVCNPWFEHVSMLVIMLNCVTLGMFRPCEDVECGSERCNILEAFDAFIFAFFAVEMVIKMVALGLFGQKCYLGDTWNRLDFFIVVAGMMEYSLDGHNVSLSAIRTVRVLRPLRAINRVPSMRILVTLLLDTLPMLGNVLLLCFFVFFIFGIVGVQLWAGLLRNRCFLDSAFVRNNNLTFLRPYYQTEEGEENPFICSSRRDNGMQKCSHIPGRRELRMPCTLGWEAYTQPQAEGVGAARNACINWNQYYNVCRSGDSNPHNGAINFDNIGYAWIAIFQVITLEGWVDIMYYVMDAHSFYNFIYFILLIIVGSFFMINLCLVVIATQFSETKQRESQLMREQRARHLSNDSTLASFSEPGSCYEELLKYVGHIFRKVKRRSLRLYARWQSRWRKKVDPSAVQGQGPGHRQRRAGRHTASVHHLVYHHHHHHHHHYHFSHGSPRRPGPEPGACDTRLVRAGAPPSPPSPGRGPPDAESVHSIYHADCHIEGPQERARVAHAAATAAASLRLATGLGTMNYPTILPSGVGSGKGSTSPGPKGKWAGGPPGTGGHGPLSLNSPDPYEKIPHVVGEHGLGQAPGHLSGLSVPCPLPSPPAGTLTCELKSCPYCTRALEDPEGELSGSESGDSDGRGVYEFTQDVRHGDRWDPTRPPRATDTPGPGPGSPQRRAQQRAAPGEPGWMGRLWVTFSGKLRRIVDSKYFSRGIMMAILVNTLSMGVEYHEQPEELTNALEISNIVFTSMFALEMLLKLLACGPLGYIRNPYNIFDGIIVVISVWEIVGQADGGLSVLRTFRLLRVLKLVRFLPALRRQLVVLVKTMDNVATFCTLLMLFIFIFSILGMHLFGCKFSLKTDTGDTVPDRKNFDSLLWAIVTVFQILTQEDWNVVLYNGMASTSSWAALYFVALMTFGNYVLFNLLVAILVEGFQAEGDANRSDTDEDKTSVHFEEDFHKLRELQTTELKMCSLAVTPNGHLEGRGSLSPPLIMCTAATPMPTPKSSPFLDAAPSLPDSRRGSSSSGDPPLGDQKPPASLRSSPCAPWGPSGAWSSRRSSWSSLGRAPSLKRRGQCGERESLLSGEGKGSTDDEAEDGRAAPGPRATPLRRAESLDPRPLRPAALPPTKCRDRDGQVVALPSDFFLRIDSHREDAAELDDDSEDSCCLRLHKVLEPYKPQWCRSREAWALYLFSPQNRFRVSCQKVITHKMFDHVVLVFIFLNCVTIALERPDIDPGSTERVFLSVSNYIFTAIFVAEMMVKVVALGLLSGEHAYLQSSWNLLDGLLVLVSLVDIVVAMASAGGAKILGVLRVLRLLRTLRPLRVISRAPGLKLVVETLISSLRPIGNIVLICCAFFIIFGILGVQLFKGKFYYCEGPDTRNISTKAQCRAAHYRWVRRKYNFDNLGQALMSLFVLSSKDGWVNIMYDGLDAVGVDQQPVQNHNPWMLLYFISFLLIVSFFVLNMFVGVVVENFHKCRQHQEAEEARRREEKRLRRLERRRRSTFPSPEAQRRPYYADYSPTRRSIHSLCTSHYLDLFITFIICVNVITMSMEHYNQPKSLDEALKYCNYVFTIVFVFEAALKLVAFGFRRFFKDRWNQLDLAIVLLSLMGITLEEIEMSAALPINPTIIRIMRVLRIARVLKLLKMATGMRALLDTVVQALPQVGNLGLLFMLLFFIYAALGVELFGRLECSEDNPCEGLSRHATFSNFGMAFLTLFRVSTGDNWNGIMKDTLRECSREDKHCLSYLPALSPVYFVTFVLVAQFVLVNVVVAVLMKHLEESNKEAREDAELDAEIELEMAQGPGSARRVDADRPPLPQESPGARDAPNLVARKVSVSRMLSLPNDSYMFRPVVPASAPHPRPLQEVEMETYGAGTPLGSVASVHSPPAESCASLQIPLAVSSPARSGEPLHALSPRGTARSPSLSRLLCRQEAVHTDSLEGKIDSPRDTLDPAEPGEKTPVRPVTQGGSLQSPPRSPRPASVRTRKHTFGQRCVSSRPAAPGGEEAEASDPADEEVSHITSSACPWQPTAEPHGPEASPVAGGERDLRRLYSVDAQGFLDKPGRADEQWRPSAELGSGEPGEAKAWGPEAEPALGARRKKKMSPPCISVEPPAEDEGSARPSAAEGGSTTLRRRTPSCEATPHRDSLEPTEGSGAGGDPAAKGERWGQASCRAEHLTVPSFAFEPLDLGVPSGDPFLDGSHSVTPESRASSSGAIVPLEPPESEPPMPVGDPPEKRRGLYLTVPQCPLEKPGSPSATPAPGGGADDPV
T2 sequence (Q12809 whole entry): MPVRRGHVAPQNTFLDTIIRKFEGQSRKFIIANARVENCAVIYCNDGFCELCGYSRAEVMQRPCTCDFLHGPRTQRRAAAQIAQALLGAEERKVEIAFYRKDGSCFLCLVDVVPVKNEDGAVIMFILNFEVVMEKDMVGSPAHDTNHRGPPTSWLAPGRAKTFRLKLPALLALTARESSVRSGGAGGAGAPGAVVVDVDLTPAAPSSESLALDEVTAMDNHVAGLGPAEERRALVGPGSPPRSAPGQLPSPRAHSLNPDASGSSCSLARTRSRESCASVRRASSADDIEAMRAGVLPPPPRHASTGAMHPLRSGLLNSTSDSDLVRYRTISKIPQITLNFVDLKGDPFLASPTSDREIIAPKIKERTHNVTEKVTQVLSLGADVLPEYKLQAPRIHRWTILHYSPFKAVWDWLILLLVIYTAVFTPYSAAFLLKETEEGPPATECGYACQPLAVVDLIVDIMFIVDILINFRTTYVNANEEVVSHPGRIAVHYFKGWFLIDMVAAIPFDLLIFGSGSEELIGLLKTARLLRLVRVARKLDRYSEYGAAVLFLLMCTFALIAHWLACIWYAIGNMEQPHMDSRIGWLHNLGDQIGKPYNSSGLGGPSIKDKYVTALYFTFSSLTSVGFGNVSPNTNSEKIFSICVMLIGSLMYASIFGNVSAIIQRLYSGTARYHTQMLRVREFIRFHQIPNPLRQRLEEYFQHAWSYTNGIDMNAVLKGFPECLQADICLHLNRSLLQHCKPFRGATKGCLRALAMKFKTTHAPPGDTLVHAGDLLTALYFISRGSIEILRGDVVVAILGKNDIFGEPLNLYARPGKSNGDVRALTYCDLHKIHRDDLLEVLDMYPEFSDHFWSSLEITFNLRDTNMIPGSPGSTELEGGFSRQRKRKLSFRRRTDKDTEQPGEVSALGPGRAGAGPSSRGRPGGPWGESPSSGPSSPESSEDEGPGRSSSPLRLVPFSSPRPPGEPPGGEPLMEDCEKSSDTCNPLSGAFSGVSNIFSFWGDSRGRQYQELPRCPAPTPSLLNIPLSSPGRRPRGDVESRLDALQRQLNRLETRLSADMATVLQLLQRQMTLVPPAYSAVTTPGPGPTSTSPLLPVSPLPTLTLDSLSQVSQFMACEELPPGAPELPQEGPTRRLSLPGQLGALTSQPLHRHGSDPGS

Consider `CC(C)(C)NC(=O)CN1CCC2(CC1)C[C@H]2NC(=O)c1cc(Cl)cc(Cl)c1` (single isomer, unassigned) [Example 57, (R)—N-(6-(2-(tert-Butylamino)-2-oxoethyl)-6-azaspiro[2.5]octan-1-yl)-3,5-dichlorobenzamide or (S)—N-(6-(2-(tert-Butylamino)-2-oxoethyl)-6-azaspiro[2.5]octan-1-yl)-3,5-dichlorobenzamide], for which the IC50 – broadly, the midpoint of a concentration-inhibition curve – on Cav3.2 channel (setting [1]) came out at 60 nM; at Cav3.2 channel (Table 2, read-out: Cav3.2 IC50) it was 60 nM. Further, the inhibition at 1 µM at hERG channel (human, CHO cells expressing hERG, pH 7.4, 1 μM, values in brackets, read-out: hERG (%) inh. at 1 μM) came out at 22%.
In the case of `CC(C)(C)NC(=O)CN1CCC2(CC1)CC2NC(=O)c1cc(F)cc(Cl)c1` (single isomer, unassigned) [Example 128, (S)—N-(6-(2-(tert-Butylamino)-2-oxoethyl)-6-azaspiro[2.5]octan-1-yl)-3-chloro-5-fluorobenzamide or (R)—N-(6-(2-(tert-Butylamino)-2-oxoethyl)-6-azaspiro[2.5]octan-1-yl)-3-chloro-5-fluorobenzamide], the IC50 on Cav3.2 channel (setting [1]) came out at 110 nM; at Cav3.2 channel (Table 2, read-out: Cav3.2 IC50), 90 nM; on Cav3.2 channel (setting [2]) it was 89 nM; at hERG channel, 7000 nM. The “% Use-Dep (use-dependent drug action)” value on Cav3.2 channel (Table 3A) amounted to 21.3%.
`CC(C)(C)NC(=O)CN1CCC2(CC1)C[C@H]2NC(=O)c1cc(F)cc(Cl)c1` (single isomer, unassigned) [Example 129, (R)—N-(6-(2-(tert-Butylamino)-2-oxoethyl)-6-azaspiro[2.5]octan-1-yl)-3-chloro-5-fluorobenzamide or (S)—N-(6-(2-(tert-Butylamino)-2-oxoethyl)-6-azaspiro[2.5]octan-1-yl)-3-chloro-5-fluorobenzamide]: the IC50 at Cav3.2 channel (setting [1]) was 870 nM; on Cav3.2 channel (Table 2, read-out: Cav3.2 IC50), 870 nM; at hERG channel (Table 2, read-out: hERG IC50), 16000 nM.
Take `CC(C)(C)NC(=O)CN1CCC2(CC1)C[C@H]2NC(=O)c1cc(F)cc(C(F)(F)F)c1` (single isomer, unassigned) [Example 130, (R)—N-(6-(2-(tert-Butylamino)-2-oxoethyl)-6-azaspiro[2.5]octan-1-yl)-3-fluoro-5-(trifluoromethyl)benzamide or (S)—N-(6-(2-(tert-Butylamino)-2-oxoethyl)-6-azaspiro[2.5]octan-1-yl)-3-fluoro-5-(trifluoromethyl)benzamide]: the IC50 on Cav3.2 channel (setting [1]) is 180 nM; at Cav3.2 channel (Table 2, read-out: Cav3.2 IC50) it was 180 nM; on hERG channel (Table 2, read-out: hERG IC50), 8000 nM.
`CC(C)(C)NC(=O)CN1CCC2(CC1)C[C@H]2C(=O)Nc1cc(C(F)(F)F)cc(C(F)(F)F)c1` (single isomer, unassigned) [Example 132, (R)—N-(3,5-Bis(trifluoromethyl)phenyl)-6-(2-(tert-butylamino)-2-oxoethyl)-6-azaspiro[2.5]octane-1-carboxamide or (S)—N-(3,5-Bis(trifluoromethyl)phenyl)-6-(2-(tert-butylamino)-2-oxoethyl)-6-azaspiro[2.5]octane-1-carboxamide]: the IC50 on Cav3.2 channel (read-out: Cav3.2 IC50) and at Cav3.2 channel (read-out: IC50) was 140 nM throughout. Moreover, on hERG channel (1 μM, values in brackets), the “hERG (%) inh. at 1 μM” value is “(9%)”.
For the compound `CC(C)(C)NC(=O)CN1CCC2(CC1)C[C@H]2NC(=O)c1cc(C(F)(F)F)cc(C(F)(F)F)c1` (single isomer, unassigned) [Example 144, ((R)—N-(6-(2-(tert-butylamino)-2-oxoethyl)-6-azaspiro[2.5]octan-1-yl)-3,5-bis(trifluoromethyl)benzamide or (S)—N-(6-(2-(tert-butylamino)-2-oxoethyl)-6-azaspiro[2.5]octan-1-yl)-3,5-bis(trifluoromethyl)benzamide], the IC50 at Cav3.2 channel (setting [1]) is 80 nM; on Cav3.2 channel (Table 2, read-out: Cav3.2 IC50) it was 80 nM; at hERG channel (Table 2, read-out: hERG IC50) it was 4600 nM.
Take `CC(C)(C)NC(=O)CN1CCC2(CC1)C[C@H]2NC(=O)C12CC3CC(CC(C3)C1)C2` (single isomer, unassigned) [Example 145, N—((R)-6-(2-(tert-butylamino)-2-oxoethyl)-6-azaspiro[2.5]octan-1-yl)adamantane-1-carboxamide or N—((S)-6-(2-(tert-butylamino)-2-oxoethyl)-6-azaspiro[2.5]octan-1-yl)adamantane-1-carboxamide]: the IC50 at Cav3.2 channel (setting [1]) is 140 nM; on Cav3.2 channel (Table 2, read-out: Cav3.2 IC50), 140 nM; at hERG channel (Table 2, read-out: hERG IC50), more than 30000 nM.
Take `CC(C)(C)CCN1CCC2(CC1)C[C@H]2NC(=O)c1cc(C(F)(F)F)cc(C(F)(F)F)c1` (single isomer, unassigned) [Example 146, (R)—N-(6-(3,3-dimethylbutyl)-6-azaspiro[2.5]octan-1-yl)-3,5-bis(trifluoromethyl)benzamide or (S)—N-(6-(3,3-dimethylbutyl)-6-azaspiro[2.5]octan-1-yl)-3,5-bis(trifluoromethyl)benzamide]: the 50% inhibitory concentration (IC50) on Cav3.2 channel (setting [1]) was 70 nM; on Cav3.2 channel (Table 2, read-out: Cav3.2 IC50) it was 70 nM; on hERG channel (Table 2, read-out: hERG IC50), 1200 nM.
Consider `CC(C)(C)CCN1CCC2(CC1)C[C@H]2NC(=O)c1cc(C(F)(F)F)ccc1Cl` (single isomer, unassigned) [Example 147, (R)-2-Chloro-N-(6-(3,3-dimethylbutyl)-6-azaspiro[2.5]octan-1-yl)-5-(trifluoromethyl)benzamide or (S)-2-Chloro-N-(6-(3,3-dimethylbutyl)-6-azaspiro[2.5]octan-1-yl)-5-(trifluoromethyl)benzamide], for which the IC50 came to 130 nM on Cav3.2 channel (setting [1]); 130 nM on Cav3.2 channel (Table 2, read-out: Cav3.2 IC50); 1800 nM at hERG channel (Table 2, read-out: hERG IC50).
In the case of `CC(C)(C)NC(=O)CN1CCC2(CC1)CC2NC(=O)c1cc(F)cc(Cl)c1` (centres unmarked) [Example 17, N-(6-(2-(tert-Butylamino)-2-oxoethyl)-6-azaspiro[2.5]octan-1-yl)-3-chloro-5-fluorobenzamide], the IC50 on Cav3.2 channel (setting [1]) was 240 nM; on Cav3.2 channel (Table 2, read-out: Cav3.2 IC50), 240 nM; against hERG channel, 10700 nM.
On to `CC(C)(C)CCN1CCC2(CC1)CC2NC(=O)c1cc(F)cc(Cl)c1` (centres unmarked) [Example 28, 3-Chloro-N-(6-(3,3-dimethylbutyl)-6-azaspiro[2.5]octan-1-yl)-5-fluorobenzamide], for which the IC50 on Cav3.2 channel (setting [1]) is 70 nM; at Cav3.2 channel (Table 2, read-out: Cav3.2 IC50) it was 70 nM; against hERG channel it was 3600 nM.
On to `O=C(Nc1nnc(-c2ccccc2)o1)c1ccc(Cl)s1` [Example 115, 5-Chloro-N-(5-phenyl-1,3,4-oxadiazol-2-yl)thiophene-2-carboxamide], for which the IC50 on Cav3.2 channel (setting [1]) worked out at 930 nM.
With `CC(C)(C)NC(=O)CN1CCC2(CC1)CC2C(=O)Nc1cc(F)cc(C(F)(F)F)c1` (centres unmarked) [Example 141, 6-(2-(tert-Butylamino)-2-oxoethyl)-N-(3-fluoro-5-(trifluoromethyl)phenyl)-6-azaspiro[2.5]octane-1-carboxamide], the half-maximal inhibitory concentration (IC50) was determined as 180 nM at Cav3.2 channel (setting [1]); 180 nM on Cav3.2 channel (Table 2, read-out: Cav3.2 IC50); 17400 nM on hERG channel (Table 2, read-out: hERG IC50).
For `CC(C)(C)CCN1C[C@@H]2[C@@H](CNC(=O)c3cc(Cl)cc(Cl)c3)[C@@H]2C1` [ML218, 3,5-Dichloro-N-[[(1α,5α,6-exo,6α)-3-(3,3-dimethylbutyl)-3-azabicyclo[3.1.0]hex-6-yl]methyl]benzamide, reference compound], the IC50 on Cav3.2 channel (Table 2, read-out: Cav3.2 IC50) turned out to be 310 nM; on Cav3.2 channel (setting [2]) it was 310 nM; on hERG channel (Table 2, read-out: hERG IC50), 2100 nM. Further, the “% Use-Dep (use-dependent drug action)” value at Cav3.2 channel (Table 3A) worked out at 19.2%.
Regarding `CC(C)(C)NC(=O)CN1CCC(CNC(=O)c2cc(F)cc(Cl)c2)CC1` [Z944, reference compound], the IC50 at Cav3.2 channel (Table 2, read-out: Cav3.2 IC50) turned out to be 190 nM; on Cav3.2 channel (setting [2]) it was 200 nM; at hERG channel (Table 2, read-out: hERG IC50) it was 9500 nM. For the same compound, on Cav3.2 channel (Table 3A), the “% Use-Dep (use-dependent drug action)” value came out at 17.6%.
